Results taken from the NIST ThermoML archive (doi:10.1016/j.fluid.2016.09.021).
± gives the expanded uncertainty stated by the source.

Details: Liquid, Vibrating tube method

c1ccccc1 [benzene]
mass density (293 K, 2100 kPa): 877.4 ± 2 kg/m3
mass density (293 K, 3100 kPa): 878.1 ± 2 kg/m3
mass density (293 K, 4100 kPa): 878.8 ± 2 kg/m3
mass density (293 K, 5000 kPa): 879.6 ± 2 kg/m3
mass density (293 K, 10100 kPa): 883.4 ± 2 kg/m3
mass density (293 K, 20000 kPa): 890.4 ± 2 kg/m3
mass density (293 K, 30000 kPa): 896.9 ± 2 kg/m3
mass density (293 K, 40000 kPa): 902.9 ± 2 kg/m3
mass density (293 K, 50000 kPa): 908.6 ± 2 kg/m3
mass density (293 K, 60000 kPa): 914 ± 2 kg/m3
mass density (293 K, 70000 kPa): 919.6 ± 2 kg/m3
mass density (313 K, 2100 kPa): 857 ± 2.1 kg/m3
mass density (313 K, 3100 kPa): 857.8 ± 2 kg/m3
mass density (313 K, 4100 kPa): 858.7 ± 2 kg/m3
mass density (313 K, 5000 kPa): 859.6 ± 2 kg/m3
mass density (313 K, 10100 kPa): 863.9 ± 2 kg/m3
mass density (313 K, 20000 kPa): 871.5 ± 2 kg/m3
mass density (313 K, 30000 kPa): 878.7 ± 2 kg/m3
mass density (313 K, 40000 kPa): 885.2 ± 2 kg/m3
mass density (313 K, 50000 kPa): 891.6 ± 2 kg/m3
mass density (313 K, 60000 kPa): 897.5 ± 2 kg/m3
mass density (313 K, 70000 kPa): 902.9 ± 2 kg/m3
mass density (333 K, 2100 kPa): 835.1 ± 2 kg/m3
mass density (333 K, 3100 kPa): 836 ± 2 kg/m3
mass density (333 K, 4100 kPa): 837 ± 2.1 kg/m3
mass density (333 K, 5000 kPa): 838 ± 2.1 kg/m3
mass density (333 K, 10100 kPa): 842.7 ± 2 kg/m3
mass density (333 K, 20000 kPa): 851.8 ± 2 kg/m3
mass density (333 K, 30000 kPa): 859.4 ± 2 kg/m3
mass density (333 K, 40000 kPa): 867 ± 2 kg/m3
mass density (333 K, 50000 kPa): 874.2 ± 2 kg/m3
mass density (333 K, 60000 kPa): 880.8 ± 2 kg/m3
mass density (333 K, 70000 kPa): 886.7 ± 2 kg/m3
mass density (353 K, 2100 kPa): 813.1 ± 2.1 kg/m3
mass density (353 K, 3100 kPa): 814.2 ± 2.1 kg/m3
mass density (353 K, 4100 kPa): 815.4 ± 2.1 kg/m3
mass density (353 K, 5000 kPa): 816.5 ± 2.1 kg/m3
mass density (353 K, 10100 kPa): 822.3 ± 2.1 kg/m3
mass density (353 K, 20000 kPa): 832.3 ± 2.1 kg/m3
mass density (353 K, 30000 kPa): 841.2 ± 2 kg/m3
mass density (353 K, 40000 kPa): 849.5 ± 2.1 kg/m3
mass density (353 K, 50000 kPa): 857 ± 2.1 kg/m3
mass density (353 K, 60000 kPa): 864.3 ± 2.1 kg/m3
mass density (353 K, 70000 kPa): 871.2 ± 2.1 kg/m3
mass density (373 K, 2100 kPa): 790.7 ± 2.1 kg/m3
mass density (373 K, 3100 kPa): 792.1 ± 2.1 kg/m3
mass density (373 K, 4100 kPa): 793.4 ± 2.1 kg/m3
mass density (373 K, 5000 kPa): 794.7 ± 2.1 kg/m3
mass density (373 K, 10100 kPa): 801.4 ± 2.1 kg/m3
mass density (373 K, 20000 kPa): 812.9 ± 2.1 kg/m3
mass density (373 K, 30000 kPa): 823.1 ± 2.1 kg/m3
mass density (373 K, 40000 kPa): 832.3 ± 2.1 kg/m3
mass density (373 K, 50000 kPa): 840.7 ± 2.1 kg/m3
mass density (373 K, 60000 kPa): 848.2 ± 2.1 kg/m3
mass density (373 K, 70000 kPa): 855.7 ± 2.1 kg/m3
mass density (393 K, 2100 kPa): 767.6 ± 2.2 kg/m3
mass density (393 K, 3100 kPa): 769.4 ± 2.1 kg/m3
mass density (393 K, 4100 kPa): 770.9 ± 2.1 kg/m3
mass density (393 K, 5000 kPa): 772.5 ± 2.1 kg/m3
mass density (393 K, 10100 kPa): 780 ± 2.1 kg/m3
mass density (393 K, 20000 kPa): 793 ± 2.1 kg/m3
mass density (393 K, 30000 kPa): 804.5 ± 2.1 kg/m3
mass density (393 K, 40000 kPa): 814.6 ± 2.1 kg/m3
mass density (393 K, 50000 kPa): 824 ± 2.1 kg/m3
mass density (393 K, 60000 kPa): 832.6 ± 2.1 kg/m3
mass density (393 K, 70000 kPa): 841 ± 2.1 kg/m3
mass density (413 K, 2100 kPa): 743 ± 2.3 kg/m3
mass density (413 K, 3100 kPa): 745.1 ± 2.2 kg/m3
mass density (413 K, 4100 kPa): 747 ± 2.2 kg/m3
mass density (413 K, 5000 kPa): 748.8 ± 2.1 kg/m3
mass density (413 K, 10100 kPa): 758 ± 2.1 kg/m3
mass density (413 K, 20000 kPa): 773.2 ± 2.1 kg/m3
mass density (413 K, 30000 kPa): 786.2 ± 2.1 kg/m3
mass density (413 K, 40000 kPa): 797.5 ± 2.1 kg/m3
mass density (413 K, 50000 kPa): 807.8 ± 2.1 kg/m3
mass density (413 K, 60000 kPa): 817.2 ± 2.1 kg/m3
mass density (413 K, 70000 kPa): 825.8 ± 2.1 kg/m3
mass density (433 K, 2100 kPa): 716.7 ± 2.4 kg/m3
mass density (433 K, 3100 kPa): 719.4 ± 2.3 kg/m3
mass density (433 K, 4100 kPa): 721.8 ± 2.2 kg/m3
mass density (433 K, 5000 kPa): 724 ± 2.2 kg/m3
mass density (433 K, 10100 kPa): 735.4 ± 2.2 kg/m3
mass density (433 K, 20000 kPa): 753 ± 2.1 kg/m3
mass density (433 K, 30000 kPa): 767.8 ± 2.1 kg/m3
mass density (433 K, 40000 kPa): 780.3 ± 2.1 kg/m3
mass density (433 K, 50000 kPa): 791.6 ± 2.1 kg/m3
mass density (433 K, 60000 kPa): 801.7 ± 2.1 kg/m3
mass density (433 K, 70000 kPa): 811 ± 2.1 kg/m3
mass density (448 K, 2100 kPa): 696 ± 2.5 kg/m3
mass density (448 K, 3100 kPa): 699.2 ± 2.4 kg/m3
mass density (448 K, 4100 kPa): 702.1 ± 2.3 kg/m3
mass density (448 K, 5000 kPa): 704.8 ± 2.3 kg/m3
mass density (448 K, 10100 kPa): 717.8 ± 2.2 kg/m3
mass density (448 K, 20000 kPa): 738 ± 2.2 kg/m3
mass density (448 K, 30000 kPa): 754.2 ± 2.1 kg/m3
mass density (448 K, 40000 kPa): 767.8 ± 2.1 kg/m3
mass density (448 K, 50000 kPa): 779.8 ± 2.1 kg/m3
mass density (448 K, 60000 kPa): 790.6 ± 2.1 kg/m3
mass density (448 K, 70000 kPa): 800.3 ± 2.1 kg/m3
mass density (468 K, 2100 kPa): 666.9 ± 2.5 kg/m3
mass density (468 K, 3100 kPa): 670.7 ± 2.5 kg/m3
mass density (468 K, 4100 kPa): 674.3 ± 2.5 kg/m3
mass density (468 K, 5000 kPa): 677.8 ± 2.5 kg/m3
mass density (468 K, 10100 kPa): 693.2 ± 2.3 kg/m3
mass density (468 K, 20000 kPa): 717 ± 2.2 kg/m3
mass density (468 K, 30000 kPa): 735.1 ± 2.2 kg/m3
mass density (468 K, 40000 kPa): 750.3 ± 2.1 kg/m3
mass density (468 K, 50000 kPa): 763.6 ± 2.1 kg/m3
mass density (468 K, 60000 kPa): 775.5 ± 2.1 kg/m3
mass density (468 K, 70000 kPa): 786.1 ± 2.1 kg/m3
